Source: ChEMBL document CHEMBL1145168, “Farnesoid X receptor: from structure to potential clinical applications” (J Med Chem, 2005)
pEC50, pIC50: −log10 of the molar value.

How the values were obtained:
[1] = target: T1, Bile acid receptor (Homo sapiens, UniProt Q96RI1); assay: Activation of human farnesoid X receptor in FRET assay
T1 sequence (Q96RI1 whole entry): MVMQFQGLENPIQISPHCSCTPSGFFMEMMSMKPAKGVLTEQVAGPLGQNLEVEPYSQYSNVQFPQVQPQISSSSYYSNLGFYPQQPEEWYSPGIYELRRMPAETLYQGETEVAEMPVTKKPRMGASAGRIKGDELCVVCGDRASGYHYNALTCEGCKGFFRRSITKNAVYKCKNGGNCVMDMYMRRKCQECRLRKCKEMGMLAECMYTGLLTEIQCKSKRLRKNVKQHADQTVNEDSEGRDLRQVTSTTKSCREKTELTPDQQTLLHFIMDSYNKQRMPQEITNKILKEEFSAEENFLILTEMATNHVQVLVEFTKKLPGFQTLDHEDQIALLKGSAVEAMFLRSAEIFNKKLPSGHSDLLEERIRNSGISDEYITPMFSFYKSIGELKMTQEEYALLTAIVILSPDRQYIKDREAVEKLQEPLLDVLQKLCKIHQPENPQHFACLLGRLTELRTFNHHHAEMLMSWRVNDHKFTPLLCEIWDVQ

[2] = species on record: Homo sapiens; assay: Activation of human Farnesoid X receptor/Retinoic X receptor at 5 uM
[3] = Inhibition of human Farnesoid X receptor/Retinoid X receptor heterodimer; Antagonistic activity; format: functional

Structure (SMILES) | pEC50 [1] | Fold activation [2] | further results
CCCC/C(=C\c1ccc(C(=O)O)cc1)c1ccc2c(c1)C(C)(C)CCC2(C)C | – | 85 | –
CCCCCCOc1c(\C(C)=C/C=C/C(C)=C/C(=O)O)cc(C(C)C)cc1C(C)C | – | – | pIC50 [3]: > 8.00
CC1(C)CCC(C)(C)c2cc(C(Cc3ccc(C(=O)O)cc3)[Si](C)(C)C)ccc21 (stereo unspecified) | – | 91 | –

Second part, led by results:

pEC50 [1] | Fold activation [2] | Structure (SMILES) | further results
6.59 | – | O=C(O)/C=C/c1cccc(N(Cc2ccc(/C=C/c3ccccc3)cc2)C(=O)C2CCCCC2)c1 | –
6.59 | – | CN(C)c1ccc(-c2ccc(CN(C(=O)C3CCCCC3)c3cccc(/C=C/C(=O)O)c3)cc2)cc1 | –
6.65 | – | O=C(O)/C=C/c1cccc(N(Cc2ccc(-c3ccc4c(c3)OCO4)cc2)C(=O)C2CCCCC2)c1 | –
